Values of other authors, collected in paper PMC12910647, “Tumor-Targeted Delivery of an EGFR Inhibitor Prodrug via Site-Specific Albumin Conjugation” (Journal of Medicinal Chemistry, 2026).

Set-up: method as in not given
Conditions: in mice, reported value; ref not given

In the case of `C=CC(=O)Nc1cc(Nc2nccc(-c3cn(C)c4ccccc34)n2)c(OC)cc1N(C)CCN(C)C` [osimertinib], the “maximum tolerated dose (MTD)” value is given as 25 mg/kg.
